Results reported in patent US9408816B2, “Method of using histone deacetylase inhibitors and monitoring biomarkers in combination therapy” (Pharmacyclics LLC, priority 2006, dated 2016).

Legend:
RAD51 in HCT116 cells = assay: RAD51 protein levels by Western blotting in HCT116 cells; type: cell-based; details: by 24 hours, HCT-116 in vitro
Procedure: (§1) To explore this further, we analyzed levels of RAD51, an essential protein in HR, by Western blotting and immunofluorescence. Following exposure of HCT116 cells to doses of the test compound ranging from 0.2 μM to 2.0 μM, RAD51 levels decreased to 20% of control by 24 hr, but remained unchanged at 6 hr. […] Finally, RAD51 nuclear foci were visualized following γ-irradiation.
For determination of protein levels by Western blot, cellular extracts are prepared as follows. Cells are harvested by scraping; washed with PBS and pelleted by centrifugation. Cell pellets (from 100 mm plate) are resuspended with 200 μl B3 buffer containing protease inhibitors shaken at 4° C. for 10 min and centrifuge at 12,000 rpm at 4° C. in Tomy microcentrifuge for 10 minutes. To make 1 liter of B3 buffer, add 1 ml of NP-40, 50 ml of 5 M NaCl, 10 ml of […], 50 ml of 1 M Tris HCl at pH7.5 to 889 ml dH2O. The day of cell harvest protease inhibitors are added to B3 buffer (aprotinin, leupeptin and pepstatin to a final concentration of 2 μg/ml, 5 μg/ml and 0.7 μg/ml, respectively). […] Sample protein concentrations are determined by the Bradford Assay (BioRad; Richmond, Calif.). […]
Western Blot Analysis: Cell lines [al NHL except for Jurkat (T-cll leukemia) and K562 (CML)] were treated with PCI-24781 for the designated times, lysed and total protein was quantitated and western blot analysis performed. […]

[1] = test system: RAD51 transcript in HCT116 cells; assay: RAD51 transcript levels by real time PCR in HCT116 cells; type: cell-based; details: by 24 hours, HCT-116 in vitro
[2] = test system: RAD51 foci in irradiated HCT-116 cells; assay: RAD51 nuclear foci following γ-irradiation; type: cell-based; details: pretreatment for 24 hours
Procedure: as §1
Monolayer cultures of different cells are grown in Dulbecco's MEM medium supplemented with 10% fetal bovine serum and antibiotics. The cells are detached from culture flasks by gentle trypsinization, pelleted and resuspended in phosphate buffered saline (PBS; 136 mM NaCl, 2 mM KCG, 10.6 mM NaHPO4, 1.5 mM KH2PO4 [pH 7.3]) prewarmed at 37° C. (Haaf, et al., 1995, Proc. Natl. Acad. Sci. USA 92: 2298-2302). Cultured cells are washed and resuspended in PBS. The density of somatic cells is adjusted to about 10^5 cells per ml in PBS. Aliquots (0.5 ml) of the cell suspension are centrifuged onto clean glass slides at 800 rpm for 4 min, in a Cytospin (Shandon, Pittsburg). Immediately after cytocentrifugation, the slides are fixed in −20° C. methanol for 30 min and then immersed in ice-cold acetone for a few seconds to permealize the cells for antibody staining. […]

[3] = test system: RAD51 protein in NHL cell lines; assay: RAD51 protein downregulation in Non-Hodgkins lymphoma cell lines (Western blot); type: cell-based; details: 24 hours, most of the cell lines tested
Procedure: (§2) Western Blot Analysis: Cell lines [al NHL except for Jurkat (T-cll leukemia) and K562 (CML)] were treated with PCI-24781 for the designated times, lysed and total protein was quantitated and western blot analysis performed. RAD51 and Actin antibodies were from Santa Cruz.

[4] = test system: RAD51 protein in HH cutaneous T-cell lymphoma cell line; assay: RAD51 protein downregulation in HH cell line (Western blot); type: cell-based; details: 24 hours
Procedure: as §2

[5] = test system: RAD51 mRNA in lymphoma cell lines; assay: RAD51 mRNA by Taqman RT-PCR in lymphoma cell lines; type: cell-based
Procedure: (§3) Tagman Gene Expression Assays: 10 lymphoma cell lines were treated with PCI-24781 for various times and total RNA was isolated and quantitated. Taqman assays were set up using the Taqman master mix (Applied Biosystems) and 50 ng of total RNA as template. Gene expression assay probe sets for RAD51 was purchased from Applied Biosystems.
(§4) Cell lines were treated with 3-((dimethylamino)methyl)-N-(2-(4-(hydroxycarbamoyl)phenoxy)ethyl)benzofuran-2-carboxamide for 24 hours, and RAD51 mRNA was analyzed by Taqman RT-PCR.

[6] = test system: RAD51 mRNA in HH cell line; assay: RAD51 mRNA by Taqman RT-PCR in HH cell line; type: cell-based; details: 24 hours
Procedure: as §3, §4

lymphoma cell lines = assay: Apoptosis by Annexin V-FITC flow cytometry in lymphoma cell lines; type: cell-based
Procedure: (§5) 3-((dimethylamino)methyl)-N-(2-(4-(hydroxycarbamoyl)phenoxy)ethyl)benzofuran-2-carboxamide induced apoptosis in lymphoma cell lines after a 48 hour incubation measured by Annexin V-FITC flow cytometry. […] Thus, both the initial level of RAD51 in tumors as well as the fold decrease after treatment are predictive for 3-((dimethylamino)methyl)-N-(2-(4-(hydroxycarbamoyl)phenoxy)ethyl)benzofuran-2-carboxamide activity, and in some embodiments is used as biomarkers in clinical studies to identify patients most likely to respond to 3-((dimethylamino)methyl)-N-(2-(4-(hydroxycarbamoyl)phenoxy)ethyl)benzofuran-2-carboxamide.

HH lymphoma line = assay: Apoptosis by Annexin V-FITC flow cytometry in HH line; type: cell-based
Procedure: as §5

[7] = test system: DHL-4 Non-Hodgkins cell line; assay: Combination with doxorubicin in DHL-4; type: cell-based; details: administered simultaneously
[8] = test system: DLCL2 Non-Hodgkins cell line; assay: Combination with doxorubicin in DLCL2; type: cell-based; details: administered simultaneously
HH cell line = assay: Combination with doxorubicin in HH; type: cell-based; details: administered simultaneously
[9] = test system: RAD51 in HCT-116 mouse xenografts; assay: RAD51 levels in HCT-116 xenograft tumors; details: HCT-116, in vivo (not shown)
Procedure: Also shown are RAD51 levels and actin levels after extraction of tumor from HCT-116 mouse xenografts with different dosing regimens. 1× animals received a single oral dose 4 hours before the end of the study; 2× animals received one oral dose 28 hours before the end of the study and received a second dose 6 hours later; 3× animals were dosed as in the 2× but also received a third dose the following morning, 24 hours after the first dose was administered and 4 hours before the end of the study. Fold changes in protein levels were quantitated by using Odyssey software and were normalized to the levels of the actin loading control.
3-((dimethylamino)methyl)-N-(2-(4-(hydroxycarbamoyl)phenoxy)ethyl)benzofuran-2-carboxamide pretreatment for 24 hours also lead to complete loss of RAD51 foci in the nuclei of irradiated HCT-116 cells (not shown; see Adimoolam et al. 2007, PNAS epub Nov. 27 the experiment, which is herein incorporated by reference).

CN(C)Cc1c(C(=O)NCCOc2ccc(C(=O)NO)cc2)oc2ccccc12 [3-((dimethylamino)methyl)-N-(2-(4-(hydroxycarbamoyl)phenoxy)ethyl)benzofuran-2-carboxamide]
RAD51 protein levels (RAD51 in HCT116 cells): downregulating RAD51 | RAD51 mRNA levels [1]: downregulating RAD51 | RAD51 foci in the nuclei [2]: complete loss | RAD51 protein levels [3]: downregulated RAD51 protein levels in a dose-dependent manner | RAD51 protein levels ([3]; listed as 3-((dimethylamino)methyl) -N-(2-(4-(hydroxycarbamoyl)phenoxy)ethyl)benzofuran-2-): downregulated RAD51 protein levels | effect on RAD51 protein levels [4]: least effect | downregulation of RAD51 mRNA expression ([5]; 24 hours, most of the cell lines): more than 2 fold | decrease in RAD51 mRNA ([5]; the five cell lines with >70% apoptosis): > 4 fold | RAD51 mRNA change [6]: no decrease | apoptotic cell death (lymphoma cell lines; 48 hour incubation, all the lines except HH): dose-dependent increase in apoptotic cell death | apoptosis (lymphoma cell lines; at 24 hrs, all the lines): lower levels of apoptosis | apoptosis following drug treatment (lymphoma cell lines; five most sensitive cell lines): > 70% | apoptosis (HH lymphoma line): least % apoptosis | combination effect with doxorubicin [7]: synergistic effects | combination effect with doxorubicin [8]: synergistic effects | combination effect with doxorubicin (HH cell line): less than additive | RAD51 levels in vivo [9]: downregulating RAD51
